Read-outs that look alike come from different tables or passages of the source.
Legend:
LXR α LBD protein = LXR α LBD protein (Homo sapiens (Human), UniProt Q13133); assay: LXR α radioligand binding assay (SPA, competition with [3H]TO901317); conditions: read-out: LXRα Binding Ki
LXR β LBD protein = LXR β LBD protein (Homo sapiens (Human), UniProt P55055); assay: biochemical; assay type: binding
[1] = target: Gal4 DNA binding domain fused to the LBD of LXRα in HEK293 cells (Homo sapiens (Human), UniProt Q13133); assay: LXR luciferase transcriptional reporter gene assay, agonist mode, LXRα; assay type: cell-based; conditions: for EC50: read-out: Cell LXRα EC50
[2] = target: Gal4 DNA binding domain fused to the LBD of LXRβ in HEK293 cells (Homo sapiens (Human), UniProt P55055); assay: cell-based
[3] = agonist mode, read-out: Cell LXRβ EC50
[4] = Biological Test Example 1, read-out: LXRβ Binding Ki
[5] = Biological Test Example 2, agonist mode
[6] = Biological Test Example 2, agonist mode, read-out: Cell LXRβ EC50

Gal4 DNA binding domain fused to the LBD of LXRα in HEK293 cells, sequence (Q13133 209-447): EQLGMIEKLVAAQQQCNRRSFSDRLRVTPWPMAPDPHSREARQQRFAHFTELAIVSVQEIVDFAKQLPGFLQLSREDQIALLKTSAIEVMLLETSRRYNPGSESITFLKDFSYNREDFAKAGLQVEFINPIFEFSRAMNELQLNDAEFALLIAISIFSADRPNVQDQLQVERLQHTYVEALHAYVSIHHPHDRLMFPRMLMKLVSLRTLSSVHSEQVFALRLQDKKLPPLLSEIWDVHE
LXR α LBD protein, sequence (Q13133 209-447): as above
LXR β LBD protein, sequence (P55055 222-460 limits assumed): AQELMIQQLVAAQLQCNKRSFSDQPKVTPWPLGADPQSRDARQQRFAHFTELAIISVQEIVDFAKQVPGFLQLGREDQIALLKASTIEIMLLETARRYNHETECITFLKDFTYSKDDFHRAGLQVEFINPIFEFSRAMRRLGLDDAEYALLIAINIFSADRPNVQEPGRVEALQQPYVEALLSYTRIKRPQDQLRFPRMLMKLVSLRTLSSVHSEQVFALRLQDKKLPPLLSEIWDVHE
Gal4 DNA binding domain fused to the LBD of LXRβ in HEK293 cells, sequence (P55055 222-460 limits assumed): as above

Row | Compound | Ki (LXR α LBD protein) [µM] | Ki (LXR β LBD protein; read-out: LXRβ Binding Ki) [µM] | Cell LXRα efficacy [1] | EC50 [1] [µM] | EC50 [2] [µM] | Cell LXRβ efficacy ([2]; agonist mode) | EC50 ([1]; agonist mode) [µM] | Ki (LXR β LBD protein) [µM] | EC50 [2, 3] [µM] | Ki (LXR β LBD protein; [4]) [µM] | Cell LXRβ efficacy [2, 5] | EC50 [2, 6] [µM] | EC50 [1, 5] [µM] | Cell LXRβ efficacy [2]
1 | CC(C)[C@@H]1CN(c2ccc(C#N)c(S(C)(=O)=O)c2)CCN1c1ncc([C@H](C)O)c(C(F)(F)F)n1 (single isomer, unassigned) [12-5] | 1.18 | 0.08 | 1481 (22) % | 1.48 | 0.521 | 521 (40) % |  |  |  |  |  |  |  | 
2 | CC[C@H](O)c1cnc(N2CCN(c3ccc(F)c(S(C)(=O)=O)c3)C[C@H]2C(C)C)nc1C(F)(F)F (single isomer, unassigned) [12-6] | 0.266 | 0.022 | 2429 (43) % |  | 0.289 | 289 (29) % | 2.43 |  |  |  |  |  |  | 
3 | C[C@](O)(c1ccc(CN2CCN(c3cccc(S(C)(=O)=O)c3)C[C@@H]2c2ccccc2)cc1)C(F)(F)F (single isomer, unassigned) [46-28] | 3.65 |  | 4974 (24) % | 4.97 | 1.89 | 1885 (16) % |  | 0.501 |  |  |  |  |  | 
4 | C[C@@](O)(c1ccc(CN2CCN(c3cccc(S(C)(=O)=O)c3)C[C@H]2c2ccccc2)cc1)C(F)(F)F (single isomer, unassigned) [46-30] | 1.67 |  | 1787 (28) % | 1.79 | 0.532 | 532 (12) % |  | 0.216 |  |  |  |  |  | 
5 | CS(=O)(=O)c1cccc(N2CCN(C[C@H]3CC[C@@](C)(O)CC3)[C@H](c3ccccc3)C2)c1 (single isomer, unassigned) [48-6] | 30.9 | > 2.5 |  | > 20 |  |  |  |  | > 20 |  |  |  |  | 
6 | NS(=O)(=O)c1cccc(N2CCN(C[C@H]3CC[C@H](C(F)F)CC3)[C@H](c3ccccc3)C2)c1 (single isomer, unassigned) [48-20] | 4.67 | 1.55 |  | > 20 |  | 6% |  |  | 2.27 |  |  |  |  | 
7 | NS(=O)(=O)c1cccc(N2CCN(C[C@H]3CC[C@H](C(F)F)CC3)[C@@H](c3ccccc3)C2)c1 (single isomer, unassigned) [48-21] | 0.517 | 0.175 | 2703 (20) % | 2.7 |  | 10% |  |  | 0.933 |  |  |  |  | 
8 | NS(=O)(=O)c1cccc(N2CCN(C[C@H]3CC[C@@H](C(F)F)CC3)[C@H](c3ccccc3)C2)c1 (single isomer, unassigned) [48-22] | 1.5 | 0.918 | 9061 (8) % | 9.06 |  | 8% |  |  | 1.19 |  |  |  |  | 
9 | CS(=O)(=O)c1cc(N2CCN(C[C@H]3CC[C@H](C(F)(F)F)CC3)[C@H](c3ccccc3)C2)ccc1CO (single isomer, unassigned) [48-44] | 10.8 | 0.972 | 11556 (50) % | 11.6 |  | 34% |  |  | 3.1 |  |  |  |  | 
10 | CS(=O)(=O)c1cc(N2CCN(C[C@H]3CC[C@H](C(F)(F)F)CC3)[C@@H](c3ccccc3)C2)ccc1CO (single isomer, unassigned) [48-45] | 0.075 |  | 431 (65) % | 0.431 |  |  |  |  |  | 0.021 | 33% | 0.14 |  | 
11 | CS(=O)(=O)c1cccc(N2CCN(CC3(F)CCN(CC(F)(F)F)CC3)[C@@H](c3ccccc3)C2)c1 (single isomer, unassigned) [48-53] | 2.18 |  | 2169 (43) % |  | 0.711 |  |  |  |  | 0.259 | 711 (20) % |  | 2.17 | 
12 | CS(=O)(=O)c1cccc(N2CCN(CC3(F)CCN(CC(F)(F)F)CC3)[C@H](c3ccccc3)C2)c1 (single isomer, unassigned) [48-54] | > 3.33 |  |  |  | > 20 |  |  |  |  | 2.39 |  |  | > 20 | 
13 | CS(=O)(=O)c1cccc(N2CCN(CC3CCN(CC(F)(F)F)CC3)[C@@H](c3ccccc3Cl)C2)c1 (single isomer, unassigned) [48-55] | 0.277 | 0.067 | 2129 (42) % | 2.13 | 0.547 |  |  |  |  |  |  |  |  | 547 (19) %
14 | CC(C)[C@H]1CC[C@H](CN2CCN(c3ccc(CO)c(S(C)(=O)=O)c3)C[C@@H]2c2ccccc2)CC1 (single isomer, unassigned) [48-77] | 0.131 |  | 789 (53) % | 0.789 |  |  |  |  |  | 0.023 | 23% | 0.36 |  | 
15 | CC(C)[C@H]1CC[C@H](CN2CCN(c3ccc(CO)c(S(C)(=O)=O)c3)C[C@H]2c2ccccc2)CC1 (single isomer, unassigned) [48-78] | 30.7 |  | 10997 (14) % | 11 |  |  |  |  |  | 2.46 | 10% | 8.34 |  | 
16 | NS(=O)(=O)c1cccc(N2CCN(CC3CCN(CC(F)(F)F)CC3)[C@@H](c3ccccc3)C2)c1 (single isomer, unassigned) [48-81] | 2.3 |  | 1964 (37) % |  | 0.822 |  |  |  |  | 0.479 | 822 (9) % |  | 1.96 | 
17 | NS(=O)(=O)c1cccc(N2CCN(CC3CCN(CC(F)(F)F)CC3)[C@H](c3ccccc3)C2)c1 (single isomer, unassigned) [48-82] | 7.4 |  |  |  | > 20 |  |  |  |  | 2.49 |  |  | > 20 | 
18 | CS(=O)(=O)c1cccc(N2CCN(C[C@H]3CC[C@@H](C(F)(F)F)OC3)[C@@H](c3ccc(F)cc3)C2)c1 (single isomer, unassigned) [49-9] | 1.21 |  | 1643 (32) % | 1.64 | 0.575 |  |  | 0.15 |  |  | 575 (23) % |  |  | 
19 | CS(=O)(=O)c1cccc(N2CCN(C[C@H]3CCC(C(F)(F)F)OC3)[C@@H](c3ccc(F)cc3)C2)c1 (single isomer, unassigned) [49-10] | 0.438 |  | 1575 (67) % | 1.57 | 0.376 |  |  | 0.053 |  |  | 376 (37) % |  |  | 
20 | CS(=O)(=O)c1cccc(N2CCN(C[C@@H]3CCC(C(F)(F)F)OC3)[C@@H](c3ccc(F)cc3)C2)c1 (single isomer, unassigned) [49-12] | 1.77 |  | 2637 (51) % | 2.64 | 0.522 |  |  | 0.184 |  |  | 522 (25) % |  |  | 
21 | CS(=O)(=O)c1cc(N2CCN(C[C@H]3CC[C@@H](C(F)(F)F)CC3)[C@H](c3ccccc3)C2)ccc1C#N (single isomer, unassigned) [50-5] | 6.55 |  | 10000 (7) % | 10 |  |  |  |  |  | 0.688 | 11% | 0.997 |  | 
22 | CS(=O)(=O)c1cc(N2CCN(C[C@H]3CC[C@@H](C(F)(F)F)CC3)[C@@H](c3ccccc3)C2)ccc1C#N (single isomer, unassigned) [50-6] | 0.241 |  | 429 (81) % | 0.429 |  |  |  |  |  | 0.058 | 53% | 0.226 |  | 
23 | CO[C@H]1CC[C@H](CN2CCN(c3ccc(CO)c(S(C)(=O)=O)c3)C[C@@H]2C(C)C)CC1 (single isomer, unassigned) [51-6] | 2.79 |  | 1772 (45) % | 1.77 |  |  |  |  |  | 0.543 | 45% | 0.4 |  | 
24 | CS(=O)(=O)c1cc(N2CCN(C[C@H]3CC[C@@H](C(F)(F)F)CC3)[C@@H](c3ccccc3Cl)C2)ccc1C(N)=O (single isomer, unassigned) [Cpd No 4-8] | 0.443 | 0.08 | 782 (91) % | 0.782 | 0.545 |  |  |  |  |  |  |  |  | 545 (59) %
25 | CS(=O)(=O)c1cc(N2CCN(C[C@H]3CC[C@@H](C(F)(F)F)CC3)[C@H](c3ccccc3Cl)C2)ccc1C(N)=O (single isomer, unassigned) [Cpd No 4-9] | 3.65 | 0.926 | 15695 (21) % | 15.7 | 5.05 |  |  |  |  |  |  |  |  | 5047 (31) %
26 | CS(=O)(=O)c1cccc(N2CCN(C[C@H]3CC[C@](C)(O)CC3)[C@@H](c3ccccc3)C2)c1 (single isomer, unassigned) [Cpd No 48-7] | 4.53 | 0.465 | 4661 (6) % | 4.66 |  |  |  |  | > 20 |  |  |  |  | 
27 | CS(=O)(=O)c1cccc(N2CCN(C[C@H]3CC[C@](C)(O)CC3)[C@H](c3ccccc3)C2)c1 (single isomer, unassigned) [Cpd No 48-8] | > 3.33 | > 2.5 |  | > 20 |  |  |  |  | > 20 |  |  |  |  | 
28 | CO[C@]1(C(F)(F)F)CC[C@@H](CN2CCN(c3ccc(CO)c(S(C)(=O)=O)c3)C[C@@H]2C(C)C)CC1 (single isomer, unassigned) [Cpd No 48-79] | 0.005 |  | 6 (58) % |  | 0.001 |  |  |  |  | 0.002 | 1 (115) % |  | 0.006 | 
29 | CO[C@]1(C(F)(F)F)CC[C@H](CN2CCN(c3ccc(CO)c(S(C)(=O)=O)c3)C[C@@H]2C(C)C)CC1 (single isomer, unassigned) [Cpd No 48-80] | 0.03 |  | 27 (73) % |  | 0.018 |  |  |  |  | 0.003 | 18 (99) % |  | 0.027 | 
